Earlier results on 1 molecule are cited in PubChem BioAssay AID1259409 (Chemical Carcinogenesis Research Information System (CCRIS), 2018).

The subject of the data set is rodent chemically induced tumor inhibition, incidence and multiplicity. Briefly: CCRIS tumor inhibitor studies. The conditions noted are these: Route [Inhibitor]: ORAL, Promoter: NONE USED.

For `CC1=C(CC(=O)O)c2cc(F)ccc2/C1=C\c1ccc(S(C)=O)cc1` (stereo unspecified), the “tumour outcome (control, treated, inhibition, significance)” value (Carcinogen: 1,2-DIMETHYLHYDRAZINE HYDROCHLORIDE, 306-37-6, Dose [Inhibitor]: 5 MG/KG BW IN DRINKING WATER ADMINISTERED CONCURRENTLY WITH CARCINOGEN FOR 24 WK (STUDY DURATION: 24 WK), Species: MOUSE, Strain/Sex: BALB/FEMALE, Target Tissue: Type of Lesion: COLON: MICROADENOMA, Dose [Carcinogen]: 25 MG/KG BW IN 0.4% EDTA AND 0.9% NORMAL SALINE 1/WK FOR 24 WK) is recorded as 35/38 (92%), 18/38 (47%), 49%, not calculated; the “tumour outcome (control, treated, inhibition, significance)” value (Carcinogen: 1,2-DIMETHYLHYDRAZINE HYDROCHLORIDE, 306-37-6, Dose [Inhibitor]: 5 MG/KG BW IN DRINKING WATER BEGINNING 10 D POST LAST CARCINOGEN DOSE AND CONTINUING FOR 78 D (STUDY DURATION: 28 WK), Species: MOUSE, Strain/Sex: BALB/FEMALE, Target Tissue: Type of Lesion: COLON: MICROADENOMA, Dose [Carcinogen]: 25 MG/KG BW IN 0.4% EDTA AND 0.9% NORMAL SALINE 1/WK FOR 17 WK) is 15/18 (83%), 13/18 (72%), 13%, not calculated; the “tumour outcome (control, treated, inhibition, significance)” value (Carcinogen: 1-METHYL-1-NITROSOUREA, 684-93-5, Dose [Inhibitor]: 0, 0.06% IN A PURIFIED HIGH-FAT (24.6%) DIET FOR 37 WK BEGINNING 1 WK POST CARCINOGEN DOSE (STUDY DURATION:38 WK), Species: RAT, Strain/Sex: SPRAGUE-DAWLEY/FEMALE, Target Tissue: Type of Lesion: MAMMARY GLAND: CARCINOMA, Dose [Carcinogen]: 12.5 MG/KG BW ONCE) is given as 30%, 9%, 70%, p<0.05; the “tumour outcome (control, treated, inhibition, significance)” value (Carcinogen: 1-METHYL-1-NITROSOUREA, 684-93-5, Dose [Inhibitor]: 0, 0.06% IN DIET FOR DURATION OF STUDY BEGINNING 7 D POST CARCINOGEN DOSE (STUDY DURATION: 24 WK), Species: RAT, Strain/Sex: SPRAGUE-DAWLEY/FEMALE, Target Tissue: Type of Lesion: MAMMARY GLAND: ADENOCARCINOMA, Dose [Carcinogen]: 50 MG/KG ONCE) is recorded as 93%, 87%, 6%, not significant; the “tumour outcome (control, treated, inhibition, significance)” value (Carcinogen: 4-(METHYLNITROSAMINO)-1-(3-PYRIDYL)-1-BUTANONE, 64091-91-4, Dose [Inhibitor]: 0, 0.13 G/KG DIET (EFFECTIVE DOSE 0.95 UMOL/D) BEGINNING 2 WK PRIOR TO CARCINOGEN TREATMENT AND CONTINUING FOR DURATION, Species: MOUSE, Strain/Sex: STRAIN-A/FEMALE, Target Tissue: Type of Lesion: LUNG: TUMORS, Dose [Carcinogen]: 9.0-9.2 MG/MOUSE (TOTAL DOSE) IN DRINKING WATER ADMINISTERED OVER 7 WK) was 28/28 (100%), 23/25 (92%), 8%, not significant; the “tumour outcome (control, treated, inhibition, significance)” value (Carcinogen: 4-(METHYLNITROSAMINO)-1-(3-PYRIDYL)-1-BUTANONE, 64091-91-4, Dose [Inhibitor]: 0, 15 MG/KG BW IN DIET FOR DURATION OF STUDY BEGINNING 2 WK PRIOR TO CARCINOGEN TREATMENT (STUDY DURATION: 25 WK), Species: MOUSE, Strain/Sex: STRAIN-A/FEMALE, Target Tissue: Type of Lesion: LUNG: TUMOR, Dose [Carcinogen]: 9.1 MG/MOUSE (TOTAL DOSE) ADMINISTERED IN DRINKING WATER OVER 7 WK) is on record as 23/24 (96%), 25/25 (100%), -4%, not significant. The “tumour outcome (control, treated, inhibition, significance)” value runs as follows: (Carcinogen: 4-(METHYLNITROSAMINO)-1-(3-PYRIDYL)-1-BUTANONE, 64091-91-4, Dose [Inhibitor]: 0, 123 MG/KG IN DIET FOR 9 WK BEGINNING 2 WK PRIOR TO CARCINOGEN TREATMENT (STUDY DURATION: 25 WK), Species: MOUSE, Strain/Sex: STRAIN-A/FEMALE, Target Tissue: Type of Lesion: FORESTOMACH: TUMOR, Dose [Carcinogen]: 9.1 MG IN DRINKING WATER FOR 7 WK) 7/25 (28%), 2/25 (8%), 71%, not significant; (Carcinogen: 4-(METHYLNITROSAMINO)-1-(3-PYRIDYL)-1-BUTANONE, 64091-91-4, Dose [Inhibitor]: 0, 123 MG/KG IN DIET FOR 16 WK BEGINNING POST CARCINOGEN TREATMENT (STUDY DURATION: 25 WK), Species: MOUSE, Strain/Sex: STRAIN-A/FEMALE, Target Tissue: Type of Lesion: FORESTOMACH: TUMOR, Dose [Carcinogen]: 9.1 MG IN DRINKING WATER FOR 7 WK) 7/25 (28%), 3/22 (14%), 50%, not significant; (Carcinogen: 4-(METHYLNITROSAMINO)-1-(3-PYRIDYL)-1-BUTANONE, 64091-91-8, Dose [Inhibitor]: 0, 123 MG/KG IN DIET FOR 25 WK BEGINNING 2 WK PRIOR TO CARCINOGEN TREATMENT (STUDY DURATION: 25 WK), Species: MOUSE, Strain/Sex: STRAIN-A/FEMALE, Target Tissue: Type of Lesion: FORESTOMACH: TUMOR, Dose [Carcinogen]: 9.1 MG IN DRINKING WATER FOR 7 WK) 7/25 (28%), 1/25 (4%), 86%, p<0.05; (Carcinogen: AZOXYMETHANE, 25843-45-2, Dose [Inhibitor]: 0, 160 PPM IN DIET FOR DURATION OF STUDY BEGINNING 2 WK PRIOR TO CARCINOGEN TREATMENT (STUDY DURATION: 54 WK), Species: RAT, Strain/Sex: F344/MALE, Target Tissue: Type of Lesion: COLON: ADENOCARCINOMA, Dose [Carcinogen]: 15 MG/KG BW 1/WK FOR 2 WK) 81%, 47%, 42%, p<0.01; (Carcinogen: AZOXYMETHANE, 25843-45-2, Dose [Inhibitor]: 0, 320 PPM IN DIET FOR 38 WK BEGINNING 14 WK POST CARCINOGEN TREATMENT (STUDY DURATION: 54 WK), Species: RAT, Strain/Sex: F344/MALE, Target Tissue: Type of Lesion: COLON: ADENOCARCINOMA, Dose [Carcinogen]: 15 MG/KG BW 1/WK FOR 2 WK) 81%, 26%, 68%, p<0.0001; (Carcinogen: AZOXYMETHANE, 25843-45-2, Dose [Inhibitor]: 0, 320 PPM IN DIET FOR DURATION OF STUDY BEGINNING 2 WK PRIOR TO CARCINOGEN TREATMENT (STUDY DURATION: 54 WK), Species: RAT, Strain/Sex: F344/MALE, Target Tissue: Type of Lesion: COLON: ADENOCARCINOMA, Dose [Carcinogen]: 15 MG/KG BW 1/WK FOR 2 WK) 81%, 36%, 56%, p<0.0001. In addition, the “tumour outcome (control, treated, inhibition, significance)” value by setting is: (Carcinogen: AZOXYMETHANE, 25843-45-2, Dose [Inhibitor]: 0, 400 PPM IN DIET FOR 29 WK BEGINNING 1 WK POST CARCINOGEN TREATMENT (STUDY DURATION: 32 WK), Species: RAT, Strain/Sex: F344/MALE, Target Tissue: Type of Lesion: COLON: ADENOMA, Dose [Carcinogen]: 15 MG/KG BW 1/WK FOR 2 WK) 77%, 30%, 61%, p<0.05; (Carcinogen: AZOXYMETHANE, 25843-45-2, Dose [Inhibitor]: 0, 400 PPM IN DIET FOR 29 WK BEGINNING 1 WK POST CARCINOGEN TREATMENT (STUDY DURATION: 32 WK), Species: RAT, Strain/Sex: F344/MALE, Target Tissue: Type of Lesion: COLON: CARCINOMA, Dose [Carcinogen]: 15 MG/KG BW 1/WK FOR 2 WK) 53%, 13%, 75%, p<0.05; (Carcinogen: N-BUTYL-N-(4-HYDROXYBUTYL)NITROSAMINE, 3817-11-6, Dose [Inhibitor]: 0, 200 MG/KG DIET FOR 24 WK BEGINNING 1 WK PRIOR TO CARCINOGEN TREATMENT (STUDY DURATION: 24 WK), Species: MOUSE, Strain/Sex: BDF/MALE, Target Tissue: Type of Lesion: URINARY BLADDER: TRANSITIONAL CELL CARCINOMA, Dose [Carcinogen]: 7.5 MG 1/WK FOR 8 WK) 20/74 (27%), 6/73 (8%), 70%, p<0.01; (Carcinogen: N-BUTYL-N-(4-HYDROXYBUTYL)NITROSAMINE, 3817-11-6, Dose [Inhibitor]: 0, 400 MG/KG DIET FOR 24 WK BEGINNING 1 WK PRIOR TO CARCINOGEN TREATMENT (STUDY DURATION: 24 WK), Species: MOUSE, Strain/Sex: BDF/MALE, Target Tissue: Type of Lesion: URINARY BLADDER: TRANSITIONAL CELL CARCINOMA, Dose [Carcinogen]: 7.5 MG 1/WK FOR 8 WK) 20/74 (27%), 2/75 (3%), 89%, p<0.01; (Carcinogen: N-NITROSOMETHYLBENZYLAMINE, 937-40-6, Dose [Inhibitor]: 0, 125 PPM IN DIET FOR DURATION OF STUDY BEGINNING 1 WK POST CARCINOGEN TREATMENT (STUDY DURATION: 25 WK), Species: RAT, Strain/Sex: F344/MALE, Target Tissue: Type of Lesion: ESOPHAGUS: TUMOR, Dose [Carcinogen]: 1 MG/KG 3/WK FOR 5 WK) 15/15 (100%), 14/15 (93%), 7%, not significant; (Carcinogen: N-NITROSOMETHYLBENZYLAMINE, 937-40-6, Dose [Inhibitor]: 0, 125 PPM IN DIET FOR DURATION OF STUDY BEGINNING 2 WK PRIOR TO CARCINOGEN TREATMENT (STUDY DURATION: 25 WK), Species: RAT, Strain/Sex: F344/MALE, Target Tissue: Type of Lesion: ESOPHAGUS: TUMOR, Dose [Carcinogen]: 1 MG/KG 3/WK FOR 5 WK) 15/15 (100%), 14/15 (93%), 7%, not significant. Besides, the outcome is, setting by setting: (Carcinogen: 4-(METHYLNITROSAMINO)-1-(3-PYRIDYL)-1-BUTANONE, 64091-91-4, Dose [Inhibitor]: 0, 123 MG/KG DIET FOR 2 WK BEGINNING 2 WK PRIOR TO CARCINOGEN TREATMENT (STUDY DURATION: 18 WK), Species: MOUSE, Strain/Sex: STRAIN-A/FEMALE, Target Tissue: Type of Lesion: LUNG: TUMOR, Dose [Carcinogen]: 2 MG IN 0.5 ML 0.9% SALINE ONCE) 25/25 (100%), 20/20 (100%), o%, not significant; (Carcinogen: 4-(METHYLNITROSAMINO)-1-(3-PYRIDYL)-1-BUTANONE, 64091-91-4, Dose [Inhibitor]: 0, 123 MG/KG DIET FOR 18 WK BEGINNING 2 WK PRIOR TO CARCINOGEN TREATMENT (STUDY DURATION: 18 WK), Species: MOUSE, Strain/Sex: STRAIN-A/FEMALE, Target Tissue: Type of Lesion: LUNG: TUMOR, Dose [Carcinogen]: 2 MG IN 0.5 ML 0.9% SALINE ONCE) 25/25 (100%), 24/24 (100%), o%, not significant; (Carcinogen: 4-(METHYLNITROSAMINO)-1-(3-PYRIDYL)-1-BUTANONE, 64091-91-4, Dose [Inhibitor]: 0, 123 MG/KG DIET FOR 25 WK BEGINNING 2 WK PRIOR TO CARCINOGEN TREATMENT (STUDY DURATION: 25 WK), Species: MOUSE, Strain/Sex: STRAIN-A/FEMALE, Target Tissue: Type of Lesion: LUNG: TUMOR, Dose [Carcinogen]: 62.4 UG/ML IN DRINKING WATER FOR 7 WK FOR A CUMULATIVE DOSE OF 9.1 MG/MOUSE) 25/25 (100%), 24/24 (100%), o%, not significant.
